The format of data set [1] is physicochemical. As to conditions: for Dye Concentration in Acetone at RT: 72 h. On the procedure:
Examples 3-4 and Comparative Example A were prepared by placing 60-100 mg of each of the compounds of Examples 1-2 and 6-methoxy-14H-anthra(2,1,9-mna)thioxanthene-14-one (described by […] et al.) in a vial with 5.0 ml acetone. […] Each vial was hand shaken and the solution was filtered using a 0.45 micron polytetrafluoroethylene (PTFE) filter commercially available from VWR Scientific Products, West Chester, Pa. under the trade designation “Acrodisc 13CR PTFE”. The amount of fluorescent dye in the saturated acetone solution was determined by measuring the major dye absorption band at 535 nm using a UV-Vis Spectrophotometer commercially available from Shimadzu Scientific Instruments, Inc., Columbia, Md. under the trade designation “Shimadzu model UV-2401PC”. Dye concentrations were calculated by measuring the absorbance of the saturated acetone solution, and then diluting that solution until absorbance of the resulting solution was below 3. The dyes were assumed to have equal absorbance per mole. Using the dilution and an absorbance coefficient of 16,100 A/mol/L (coefficient obtained in acetone for the dye of Example 2) and assuming a Beer's Law relationship, the concentration of dye in each saturated solution was calculated and is set out in TABLE I.

On to `CC(C)CC(CC(C)C)Oc1cc2c3ccccc3c(=O)c3ccc4c5ccccc5sc1c4c32` [Example 2, 6-(1-Isobutyl-3-methylbutoxy)-14H-anthra[2,1,9-mna]thioxanthene-14-one], for which, in data set [1], the “solubility in acetone relative to Comparative Example A” value was “improved solubility” and the “Dye Concentration in Acetone at RT” value is 2.98 mg/mL.
On to `COc1cc2c3ccccc3c(=O)c3ccc4c5ccccc5sc1c4c32` [A, 6-methoxy-14H-anthra(2,1,9-mna)thioxanthene-14-one, reference compound], for which, in data set [1], the “Dye Concentration in Acetone at RT” value amounted to 0.06 mg/mL.
The term melting point denotes the temperature, or range, at which the solid turns liquid. For `CCCCC(CC)COc1cc2c3ccccc3c(=O)c3ccc4c5ccccc5sc1c4c32` (stereo not drawn) [Example 1, 6-[(2-Ethylhexyl)oxy]-14H-anthra[2,1,9-mna]thioxanthene-14-one], the melting point lay in the range of 175 to 177 °C. For the same molecule, in data set [1], the “solubility in acetone relative to Comparative Example A” value is on record as “improved solubility” and the “Dye Concentration in Acetone at RT” value worked out at 0.96 mg/mL.

Values taken from US6531613B1 (3M Innovative Properties Company, priority 2001, dated 2003).
